Test results taken from article PMC6291527, “A Nanostructured Lipid System to Improve the Oral Bioavailability of Ruthenium(II) Complexes for the Treatment of Infections Caused by Mycobacterium tuberculosis” (Frontiers in Microbiology, 2018).
Marks after values point to notes of the source that are not given here.

How the values were obtained:
[1] = test system: mouse macrophages (J774A.1); assay: In vitro cytotoxic activity (resazurin) in macrophages; format: cell-based; conditions: complex solubilized in DMSO; J774A.1 macrophages, 24 h
Description: The cytotoxicity of the complexes solubilized in DMSO and loaded into the NLS was measured in mouse macrophages (J774A.1 ATCCb TIB-67) as described by [Pavan et al. (2010a)]. The cells were incubated at 37°C with 5% CO2 on plates with a surface area of 12.50 cm^2 in 10 ml RPMI (Vitrocell®, Campinas, SP, Brazil) supplemented with 10% fetal bovine serum, gentamicin sulfate (50 mg l^-1) and amphotericin B (2 mg l^-1). This technique consists of collecting the cells using a scraper, centrifuging (2000 rpm for 5 min), counting the number of cells in a Newbauer chamber, and then adjusting the concentration to 3.4 × 10^5 cells ml^-1 in RPMI. Next, 200 μl suspension was deposited into each well of a 96-well microplate and incubated at 37°C in an atmosphere of 5% CO2 for 24 h to allow the cells to attach to the plate. Dilutions of the test compounds were prepared to obtain concentrations from 500 to 1.95 μg ml^-1. […] The cytotoxicity of the compounds was determined by adding 30 μl developer of resazurin and read after a 6-h incubation. The reading was performed in a microplate Cytation 3 (Biotek®, Winooski, VT, United States) reader using excitation and emission filters at wavelengths of 530 and 590 nm, respectively. The cytotoxicity (IC50) was defined as the highest concentration of compound inhibiting the growth of at least 50% of the cells and was obtained from non-linear regression using GraphPad Prism 7.0 for Windows.

[2] = test system: M. tuberculosis H37Rv ATCC 27294; assay: Resazurin Microtiter Assay (REMA), MIC90 against M. tuberculosis H37Rv; conditions: for MIC90 DMSO: complex solubilized in DMSO, mean ± SD; for Standard MIC Pre-determined: repeats Table 2 values, mean ± SD of three assays

Compound	IC50 DMSO [1]	MIC90 DMSO [2]	Standard MIC Pre-determined [2]
Cc1ccnc(-c2cc(C)ccn2)c1.F[P-](F)(F)(F)(F)F.O=C([O-])c1ccccn1.[Ru+2].c1ccc(P(CCCCP(c2ccccc2)c2ccccc2)c2ccccc2)cc1 [SCAR2, [Ru(pic)(dppb)(Me-bipy)]PF6]	6.51 ± 0.67^a μg mL^-1	1.08 ± 0.12^a μg mL^-1	1.08 ± 0.12 µg/mL
F[P-](F)(F)(F)(F)F.O=C([O-])c1ccccn1.[Ru+2].c1ccc(P(CCP(c2ccccc2)c2ccccc2)c2ccccc2)cc1.c1ccc(P(CCP(c2ccccc2)c2ccccc2)c2ccccc2)cc1 [SCAR5, cis-[Ru(pic)(dppe)2]PF6]	3.88 ± 0.98^a μg mL^-1	1.32 ± 0.03^a μg mL^-1	1.32 ± 0.03 µg/mL
[Ru(pic)(dppb)(bipy)]PF6 [SCAR1]	22.26 ± 1.85^a μg mL^-1	1.18 ± 0.08^a μg mL^-1	1.18 ± 0.08 µg/mL
[Ru(pic)(dppb)(phen)]PF6 [SCAR4]	7.57 ± 0.13^a μg mL^-1	1.34 ± 0.08^a μg mL^-1	1.34 ± 0.08 µg/mL
[Ru(pic)(dppe)(phen)]PF6 [SCAR7]	14.36 ± 1.57^a μg mL^-1	0.98 ± 0.05^a μg mL^-1	0.98 ± 0.05 µg/mL
